Columns and labels:
MTP = MTP (Homo sapiens, UniProt P55157); assay: MTP assay (triglyceride transfer from donor to acceptor vesicles); assay type: biochemical; conditions: MTP activity, [14C]-triglyceride transfer between vesicles, 37° C.
Protocol: MTP activity was measured using an assay similar to one described by J. R. Wetterau and D. B. Zilversmit in Chemistry and Physics of Lipids, 38, 205-222 (1985). To prepare the donor and acceptor vesicles, the appropriate lipids in chloroform were put into a glass test tube and dried under a stream of N2. A buffer containing 15 mM Tris-HCl pH 7.5, 1 mM EDTA, 40 mM NaCl, 0.02% NaN3 (assay buffer) was added to the dried lipid. The mixture was vortexed briefly and the lipids were then allowed to hydrate for 20 min on ice. Vesicles were then prepared by bath sonication (Branson 2200) at room temperature for maximum 15 min. Butylated hydroxytoluene was included in all vesicle preparations at a concentration of 0.1%. The lipid transfer assay mixture contained donor vesicles (40 nmol phosphatidylcholine, 7.5 mol % of cardiolipin and 0.25 mol % glycerol tri[1-^14C]-oleate), acceptor vesicles (240 nmol phosphatidylcholine) and 5 mg BSA in a total volume of 675 μl in a 1.5 ml microcentrifuge tube. Test compounds were added dissolved in DMSO (0.13% final concentration). After 5 minutes of pre-incubation at 37° C., the reaction was started by the addition of MTP in 100 μl dialysis buffer. The reaction was stopped by the addition of 400 μl DEAE-52 cellulose pre-equilibrated in 15 mM Tris-HCl pH 7.5, 1 mM EDTA, 0.02% NaN3 (1:1, vol/vol). The mixture was agitated for 4 min and centrifuged for 2 min at maximum speed in an Eppendorf centrifuge (4° C.) to pellet the DEAE-52-bound donor vesicles. An aliquot of the supernatant containing the acceptor liposomes was counted and the [^14C]-counts were used to calculate the percent triglyceride transfer from donor to acceptor vesicles.

[1] = system: secretion of ApoB, HepG2 cells; assay: Quantification of the secretion of ApoB in HepG2 cells; assay type: cell-based; conditions: Homo sapiens, 24 hours of incubation, pIC50 = -log IC50
Protocol: HepG2 cells were cultured in 24-well plates in MEM Rega 3 containing 10% fetal calf serum. At 70% confluency, the medium was changed and the test compound or carrier (DMSO, 0.4% final concentration) was added. After 24 hours of incubation, the medium was transferred to Eppendorf tubes and cleared by centrifugation. A sheep antibody directed against either apoB was added to the supernatant and the mixture was kept at 8° C. for 24 hours. Then, rabbit anti-sheep antibody was added and the immune complex was allowed to precipitate for 24 hours at 8° C. The immunoprecipitate was pelleted by centrifugation for 25 minutes at 1320 g and washed twice with a buffer containing 40 mM Mops, 40 mM NaH2PO4, 100 mM NaF, 0.2 mM DTT, 5 mM EDTA, 5 mM EGTA, 1% Triton-X-100, 0.5% sodium deoxycholate (DOC), 0.1% SDS, 0.2 mM leupeptin and 0.2 mM PMSF. Radioactivity in the pellet was quantified by liquid scintillation counting.

Chain of MTP (P55157 19-894, species assumed): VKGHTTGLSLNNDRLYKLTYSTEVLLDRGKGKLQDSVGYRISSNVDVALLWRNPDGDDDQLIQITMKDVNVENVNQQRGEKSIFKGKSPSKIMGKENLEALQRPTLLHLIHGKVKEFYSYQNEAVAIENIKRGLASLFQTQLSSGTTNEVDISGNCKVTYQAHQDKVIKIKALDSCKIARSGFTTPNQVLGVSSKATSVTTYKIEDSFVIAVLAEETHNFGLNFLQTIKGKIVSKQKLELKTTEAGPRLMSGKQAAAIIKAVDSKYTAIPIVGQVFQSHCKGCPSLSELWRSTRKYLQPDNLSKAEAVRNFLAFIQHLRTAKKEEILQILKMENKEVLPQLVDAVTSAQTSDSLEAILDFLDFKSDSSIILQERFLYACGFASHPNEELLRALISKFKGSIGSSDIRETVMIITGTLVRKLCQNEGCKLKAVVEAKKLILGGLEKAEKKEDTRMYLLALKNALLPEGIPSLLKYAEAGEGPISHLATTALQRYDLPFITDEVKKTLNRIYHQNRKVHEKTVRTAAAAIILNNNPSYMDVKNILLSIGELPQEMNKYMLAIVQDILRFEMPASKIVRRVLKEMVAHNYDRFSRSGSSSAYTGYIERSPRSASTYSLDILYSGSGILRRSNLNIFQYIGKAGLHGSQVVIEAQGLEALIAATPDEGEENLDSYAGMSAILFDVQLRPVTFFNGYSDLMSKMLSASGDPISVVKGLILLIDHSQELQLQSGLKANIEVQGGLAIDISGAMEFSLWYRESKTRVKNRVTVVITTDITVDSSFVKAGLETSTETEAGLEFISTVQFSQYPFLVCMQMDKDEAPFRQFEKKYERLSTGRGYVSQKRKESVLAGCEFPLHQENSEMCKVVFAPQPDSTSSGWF
Chain of MTP (P07237 18-508 partner, species assumed): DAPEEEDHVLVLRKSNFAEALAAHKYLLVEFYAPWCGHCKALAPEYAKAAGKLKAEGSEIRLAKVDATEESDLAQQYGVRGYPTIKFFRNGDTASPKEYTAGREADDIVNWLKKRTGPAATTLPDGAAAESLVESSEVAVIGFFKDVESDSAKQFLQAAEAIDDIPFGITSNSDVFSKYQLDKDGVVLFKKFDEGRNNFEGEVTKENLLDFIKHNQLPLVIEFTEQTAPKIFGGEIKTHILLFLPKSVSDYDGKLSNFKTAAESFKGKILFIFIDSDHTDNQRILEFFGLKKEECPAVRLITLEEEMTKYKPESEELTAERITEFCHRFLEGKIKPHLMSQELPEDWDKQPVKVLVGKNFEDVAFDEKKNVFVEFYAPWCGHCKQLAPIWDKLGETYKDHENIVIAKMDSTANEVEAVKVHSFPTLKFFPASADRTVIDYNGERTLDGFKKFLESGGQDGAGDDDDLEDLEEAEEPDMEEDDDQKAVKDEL

SMILES | IC50 (MTP) | IC50 [1]
CCOC(=O)[C@]1(c2ccccc2)CC[C@@H](C(=O)NCCNC(=O)c2ccccc2OC)c2ccccc21 (stereo in doubt) [compound 26] | 173 nM | 560 nM
CCOC(=O)[C@]1(c2ccccc2)CC[C@@H](C(=O)NCCNC(=O)c2ccccc2OC)c2ccccc21 [compound 2] | 406 nM | –
CCOC(=O)[C@]1(c2ccccc2)CC[C@@H](C(=O)NCCCNC(=O)c2ccccc2OC)c2ccccc21 [compound 5] | 9.38 nM | 192 nM
CCOC(=O)[C@]1(c2ccccc2)CC[C@@H](C(=O)NCCCNC(=O)c2ccccc2-c2ccc(C(F)(F)F)cc2)c2ccccc21 [compound 6] | 9.59 nM | 42.7 nM
CCOC(=O)[C@]1(c2ccccc2)CC[C@@H](C(=O)N(C)CCNC(=O)c2ccccc2OC)c2ccccc21 [compound 8] | 27 nM | > 1000 nM
CCOC(=O)[C@]1(c2ccccc2)CC[C@@H](C(=O)N(C)CCCNC(=O)c2ccccc2)c2ccccc21 [compound 10] | 10 nM | 746 nM
CCOC(=O)[C@]1(c2ccccc2)CC[C@@H](C(=O)N(C)CCCNC(=O)c2ccccc2OC)c2ccccc21 [compound 11] | – | 665 nM
CCOC(=O)[C@]1(c2ccccc2)CC[C@H](C(=O)NCCCNC(=O)c2ccccc2)c2ccccc21 [compound 16] | > 100 nM | 791 nM
CCOC(=O)[C@]1(c2ccccc2)CC[C@H](C(=O)N(C)CCNC(=O)c2ccccc2)c2ccccc21 [compound 19] | 131 nM | 228 nM
CCOC(=O)[C@]1(c2ccccc2)CC[C@H](C(=O)N(C)CCNC(=O)c2ccccc2-c2ccc(C(F)(F)F)cc2)c2ccccc21 [compound 21] | 48.2 nM | 240 nM
CCOC(=O)[C@]1(c2ccccc2)CC[C@H](C(=O)N(C)CCCNC(=O)c2ccccc2)c2ccccc21 [compound 22] | 16.4 nM | 662 nM
CCOC(=O)[C@]1(c2ccccc2)CC[C@H](C(=O)N(C)CCCNC(=O)c2ccccc2OC)c2ccccc21 [compound 23] | 11.6 nM | 597 nM
CCOC(=O)[C@]1(c2ccccc2)CC[C@H](C(=O)N(C)CCCNC(=O)c2ccccc2-c2ccc(C(F)(F)F)cc2)c2ccccc21 [compound 24] | 6.11 nM | 23.2 nM
CCCOC(=O)[C@]1(c2ccccc2)CCC(C(=O)N2CC[C@@H](NC(=O)c3cccnc3OC)C2)c2ccccc21 (stereo partly shown) [compound 30] | 23.3 nM | 76.7 nM
COC(=O)CCNC(=O)[C@]1(c2ccccc2)CC[C@@H](C(=O)N(C)CCCNC(=O)c2ccccc2OC)c2ccccc21 [compound 31] | 65.2 nM | > 1000 nM
COC(=O)CCNC(=O)[C@]1(c2ccccc2)CC[C@@H](C(=O)N(C)CCCNC(=O)c2cccnc2OC)c2ccccc21 [compound 32] | 166 nM | > 1000 nM

More lines, now with the values ahead:

IC50 (MTP) | IC50 [1] | SMILES
6.52 nM | 17.3 nM | CCOC(=O)[C@@]1(c2ccccc2)CC[C@H](C(=O)NCCNC(=O)c2ccccc2OC)c2ccccc21 (stereo in doubt) [compound 25]
7.18 nM | 95.9 nM | CCOC(=O)[C@@]1(c2ccccc2)CC[C@H](C(=O)N(C)CCCNC(=O)c2ccccc2OC)c2ccccc21 (stereo in doubt) [compound 28]
1250 nM | – | CCOC(=O)[C@]1(c2ccccc2)CC[C@@H](C(=O)NCCNC(=O)c2ccccc2)c2ccccc21 [compound 1]
208 nM | – | CCOC(=O)[C@]1(c2ccccc2)CC[C@@H](C(=O)NCCNC(=O)c2ccccc2-c2ccc(C(F)(F)F)cc2)c2ccccc21 [compound 3]
22.2 nM | 317 nM | CCOC(=O)[C@]1(c2ccccc2)CC[C@@H](C(=O)NCCCNC(=O)c2ccccc2)c2ccccc21 [compound 4]
85.5 nM | > 1000 nM | CCOC(=O)[C@]1(c2ccccc2)CC[C@@H](C(=O)N(C)CCNC(=O)c2ccccc2)c2ccccc21 [compound 7]
19.1 nM | 128 nM | CCOC(=O)[C@]1(c2ccccc2)CC[C@@H](C(=O)N(C)CCNC(=O)c2ccccc2-c2ccc(C(F)(F)F)cc2)c2ccccc21 [compound 9]
6.34 nM | 23.2 nM | CCOC(=O)[C@]1(c2ccccc2)CC[C@@H](C(=O)N(C)CCCNC(=O)c2ccccc2-c2ccc(C(F)(F)F)cc2)c2ccccc21 [compound 12]
5380 nM | – | CCOC(=O)[C@]1(c2ccccc2)CC[C@H](C(=O)NCCNC(=O)c2ccccc2)c2ccccc21 [compound 13]
2490 nM | – | CCOC(=O)[C@]1(c2ccccc2)CC[C@H](C(=O)NCCNC(=O)c2ccccc2OC)c2ccccc21 [compound 14]
2750 nM | – | CCOC(=O)[C@]1(c2ccccc2)CC[C@H](C(=O)NCCNC(=O)c2ccccc2-c2ccc(C(F)(F)F)cc2)c2ccccc21 [compound 15]
37.3 nM | 415 nM | CCOC(=O)[C@]1(c2ccccc2)CC[C@H](C(=O)NCCCNC(=O)c2ccccc2OC)c2ccccc21 [compound 17]
61.8 nM | 309 nM | CCOC(=O)[C@]1(c2ccccc2)CC[C@H](C(=O)NCCCNC(=O)c2ccccc2-c2ccc(C(F)(F)F)cc2)c2ccccc21 [compound 18]
70.6 nM | > 1000 nM | CCOC(=O)[C@]1(c2ccccc2)CC[C@H](C(=O)N(C)CCNC(=O)c2ccccc2OC)c2ccccc21 [compound 20]
40 nM | 104 nM | CCCOC(=O)[C@]1(c2ccccc2)CC[C@@H](C(=O)N2CCC(NC(=O)c3ccccc3OC)C2)c2ccccc21 (stereo partly shown) [compound 29]
80 nM | > 1000 nM | COC(=O)CCNC(=O)[C@]1(c2ccccc2)CC[C@@H](C(=O)N2CCCC(NC(=O)c3cccnc3OC)CC2)c2ccccc21 (stereo partly shown) [compound 33]
23 nM | 286 nM | CCCOC(=O)[C@]1(c2ccccc2)CC[C@@H](C(=O)N2CCCC(NC(=O)c3ccccc3OC)CC2)c2ccccc21 (stereo partly shown) [compound 42]
> 1000 nM | – | COC(=O)CCNC(=O)[C@]1(c2ccccc2)CC[C@@H](C(=O)N2CCOC(CNC(=O)c3cccnc3O)C2)c2ccccc21 (stereo partly shown) [compound 43]
52.8 nM | – | COC(=O)CCNC(=O)[C@]1(c2ccccc2)CC[C@@H](C(=O)N2CCCC(NC(=O)c3ccccc3OC)CC2)c2ccccc21 (stereo partly shown) [compound 44]

Reference: patent publication US8158783B2, “MTP inhibiting tetrahydro-naphthalene-1-carboxylic acid derivatives” (Janssen Pharmaceutica N.V., priority 2006, dated 2012)
